Experiment [1] deals with A549 cell line. The experiment is described as follows: Anti-proliferation assay in A549 cell line (CellTiter-Glo). Format: cell-based. Particulars: Homo sapiens; A549 cells, 48 h, CTG assay. How it is done: Cell viability was measured by the CellTiter-Glo Luminescent (CTG) assay. A549 cells (ATCC, Cat. No.CCL-185) were seeded (2000 cells/well) in 96-well plates and cells were left to incubate at 37 °C for 24 h. After 24 h, prepare compounds with 5-fold dilution in DMSO to the compound plate (200-fold of the final concentration) and transfer 5 μL from the compound plate to 95 μL intermediate medium in the intermediate plate (10-fold of the final concentration). Then transfer 10 μL from the intermediate plate to the cell plates. The final DMSO is 0.5%. After continuing to incubate for 48 h, add 50 μL CTG reagent to each well and read luminescence according to CTG product manual.
In general terms: ATP-based viability assays read luminescence as a measure of living cells.

In experiment [2] the target is T1, IDO1 (Homo sapiens, UniProt P14902).
T1 construct: No. 20160706
Put plainly: IDO1 enzymatic assay. Particulars: for inhibition at 10 µM: Tables 2 and 3, read-out: IDO1 % Inhibition at 10 μM (converted); for IC50: mean ± SD of at least two independent assays. Format: biochemical. How it is done: (1) Prepare 100× compound of the final desired highest inhibitor concentration in reaction by 100% DMSO. For example, if compounds test at 10 μM, then prepare 1 mM of compound solution in this step. Then dilute compound with DMSO in 3-fold mode to obtain different concentrations. Mark as source plate. (2) Add 100 μL of 100% DMSO to column 1 and column 12 for background control and no compound high control respectively.
Transfer 2 μL of each well from the 96-well source plate to a 96-well assay plate.
• (3) Enzyme Reaction • Prepare 2× enzyme solution. Add IDO-1 in assay buffer. • Prepare 2× substrate solution. Add L-tryptophan, ascorbate, methylene blue, catalase in the assay buffer. • Assay plate already contains 2 μL of compound in 100% DMSO. • Transfer 2× enzyme solution to the assay plate. Add 100 μL of 2× enzyme solution to each well of the 96-well assay plate. • Incubate at room temperature for 10 min. • Transfer […] to each well of the 96-well assay plate. • Read OD321 kinetically by Spectramax (Molecular Devices, LLC, San Jose, CA, USA). • (4) Curve Fitting • Copy data from Spectramax program. Percent inhibition = (max-conversion)/(max − min) × 100. “max” stands for high control; “min” stands for low control. • Fit the data in XL-Fit to obtain IC50 values. Equation used is: Y = Bottom + (Top − Bottom)/(1 + 10^((LogIC50 − X) × Hill Slope)

Experiment [3] addresses T2, HDAC1 (Homo sapiens, UniProt Q13547).
T2 construct: purchased BPS Bioscience Inc. 50051
The experiment is described as follows: HDAC enzymatic assay. Format: biochemical. Particulars: mean ± SD of at least two independent assays. How it is done:
• (1) Prepare 1× assay buffer (modified Tris Buffer). • (2) Compound serial dilution: Transfer compounds to assay plate by Echo in 100% DMSO. The final fraction of DMSO is 1%. • (3) Prepare enzyme solution in 1× assay buffer. • (4) Add trypsin and Ac-peptide substrate in 1× assay buffer to make the substrate solution. • (5) Transfer 15 μL of enzyme solution to assay plate or for low control transfer 15 μL of 1× assay buffer. • (6) Incubate at room temperature for 15 min. • (7) Add 10 μL of substrate solution to each well to start reaction. • (8) Incubate at room temperature for 60 min. • (9) Read the plate on Synergy MX with excitation at 355 nm and emission at 460 nm. • (10) Curve fitting: Fit the data in Excel to obtain inhibition values using Equation (1).
Inh% = (Max − Signal)/(Max − Min) × 100(1)
Fit the data in XL-Fit to obtain IC50 values using Equation (2); Y = Bottom + (Top − Bottom)/(1 + 10^((LogIC50 − X) × Hill Slope))(2)
Y is %inhibition and X is compound concentration.

This is an account of results in article PMC7582476, “Discovery of Novel Indoleamine 2,3-Dioxygenase 1 (IDO1) and Histone Deacetylase 1 (HDAC1) Dual Inhibitors Derived from the Natural Product Saprorthoquinone” (Molecules, 2020).

Molecules are shown by their SMILES. Bounds are passed on as bounds.

T1 sequence (P14902 whole entry): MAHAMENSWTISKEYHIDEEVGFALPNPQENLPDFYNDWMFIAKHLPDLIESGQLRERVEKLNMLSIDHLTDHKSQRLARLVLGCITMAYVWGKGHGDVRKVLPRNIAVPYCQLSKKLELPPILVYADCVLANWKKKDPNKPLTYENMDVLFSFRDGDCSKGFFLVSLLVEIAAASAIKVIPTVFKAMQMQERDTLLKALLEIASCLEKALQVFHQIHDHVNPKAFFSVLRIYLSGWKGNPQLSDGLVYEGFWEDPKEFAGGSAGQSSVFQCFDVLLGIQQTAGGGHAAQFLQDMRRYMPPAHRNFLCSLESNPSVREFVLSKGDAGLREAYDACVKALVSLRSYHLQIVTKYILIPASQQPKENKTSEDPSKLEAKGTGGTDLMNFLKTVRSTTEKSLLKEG
T2 sequence (Q13547 whole entry): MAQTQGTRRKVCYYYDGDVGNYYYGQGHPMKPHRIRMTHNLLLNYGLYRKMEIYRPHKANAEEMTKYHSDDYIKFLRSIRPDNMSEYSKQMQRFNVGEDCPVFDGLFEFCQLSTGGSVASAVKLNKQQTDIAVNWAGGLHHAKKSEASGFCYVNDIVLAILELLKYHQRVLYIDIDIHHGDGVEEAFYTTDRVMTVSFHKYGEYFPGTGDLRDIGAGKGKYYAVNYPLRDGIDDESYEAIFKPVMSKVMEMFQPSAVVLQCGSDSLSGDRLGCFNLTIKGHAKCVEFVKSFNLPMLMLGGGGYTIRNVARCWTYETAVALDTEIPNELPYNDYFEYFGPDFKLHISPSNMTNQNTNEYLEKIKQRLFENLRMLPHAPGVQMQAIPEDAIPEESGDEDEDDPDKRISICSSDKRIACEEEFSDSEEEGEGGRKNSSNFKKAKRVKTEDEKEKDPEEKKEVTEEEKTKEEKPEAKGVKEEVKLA

One may read the IC50 as the concentration that inhibits the measured activity by half. One may read the inhibition as the percentage by which the read-out fell short of the control. As to `Cc1ccc2c(c1CCC(=O)Nc1ccc(F)cc1N)C(=O)C(=O)C(C(C)C)=C2` [Compound 27c, N-(2-amino-4-fluorophenyl)-3-(6-isopropyl-2-methyl-7,8-dioxo-7,8-dihydronaphthalen-1-yl)propanamide], the IC50 in experiment [1] was greater than 20 µM; in experiment [3], greater than 100 µM. For the same molecule, the inhibition at 10 µM in experiment [2] is 56%.
For `Cc1ccc2c(c1CCC(=O)NCCC(=O)Nc1ccccc1N)C(=O)C(=O)C(C(C)C)=C2` [Compound 33a, N-(2-aminophenyl)-3-(3-(6-isopropyl-2-methyl-7,8-dioxo-7,8-dihydronaphthalen-1-yl)propanamido)-propanamide], in that order: greater than 20 µM, greater than 100 µM and 89%.
Consider `Cc1ccc2c(c1CCC(=O)NCCCC(=O)Nc1ccccc1N)C(=O)C(=O)C(C(C)C)=C2` [Compound 33b, N-(2-Aminophenyl)-4-(3-(6-isopropyl-2-methyl-7,8-dioxo-7,8-dihydronaphthalen-1-yl)propanamido)-butanamide], for which the IC50 was 19.1 µM in experiment [1], 0.58 ± 0.11 µM in experiment [2] and 34.9 ± 0.75 µM in experiment [3]. In addition, in experiment [2], the inhibition at 10 µM was 80%.
Taken in the same sequence, the figures for `Cc1ccc2c(c1CCC(=O)NCCCCC(=O)Nc1ccccc1N)C(=O)C(=O)C(C(C)C)=C2` [Compound 33c, N-(2-Aminophenyl)-5-(3-(6-isopropyl-2-methyl-7,8-dioxo-7,8-dihydronaphthalen-1-yl)propanamido)-pentanamide] were greater than 20 µM, 0.55 ± 0.02 µM, 39.5 ± 0.74 µM and 90%.
Taken in the same sequence, the figures for `Cc1ccc2c(c1CCC(=O)NCCCCCC(=O)Nc1ccccc1N)C(=O)C(=O)C(C(C)C)=C2` [Compound 33d, N-(2-Aminophenyl)-6-(3-(6-isopropyl-2-methyl-7,8-dioxo-7,8-dihydronaphthalen-1-yl)propanamido) hexanamide] were greater than 20 µM, 0.71 ± 0.03 µM, 0.46 ± 0.07 µM and 82%.
